Data set [1] in a line: Cardiac measurements by ultrasound. In kind it is in vivo, SCID mice. The conditions noted are these: IV 0.75 mg/kg (½MTD), q2d×4. As to the method:
Cardiac imaging is performed using a 55 MHz ultrasound transducer system. Calculations are made based on the Simpson's method. Three short axis images and one long axis image of the left ventricle are acquired and used to determine cardiac output, ejection fraction, and stroke volume. […] Measurements are made with a 55 MHz ultrasound probe. Step (a): cardiac output is a measurement of the total volume of blood pumped by the left ventricle per minute. Step (b) ejection fraction measures the percentage of blood that leaves the left ventricle every time it contracts. Step (c) stroke volume measures the volume of blood pumped from the left ventricle with each contraction.
On the other hand, we have analyzed a comprehensive panel of chemical parameters to determine the potential chemical toxicity including renal and liver toxicity using blood samples from vehicle-treated SCID mice and FL118-treated mice. The analyzed parameters include glucose (GLU), blood urea nitrogen (BUN), creatinine (CREA), inorganic phosphate (PHOS), calcium (CA), total protein (TP), albumin (ALB), alanine aminotransferase (ALT), alkaline phosphatase (ALKP), Gamma-glutamyl transferase (GGT), total bilirubin (TBIL), cholesterol (CHOL), and amylase (AMYL), lipase (LIPA).

For another data set, the system named is PARP cleavage. The conditions noted are these: p53 null versus p53 wild type HCT116.

Experimental for PARP cleavage: Actin is used as internal controls for total protein loading.
After the lysates are cleared by centrifugation at 15,000 g for 20 minutes at 4° C., the total protein is determined using Bio-Rad protein assay solution. Up to 50 μg of total protein is denatured in 2×SDS sample loading buffer for 5 minutes at 95° C., separated on 10-15% SDS-PAGE gels, and electrotransferred to the Pure Nitrocellulose Membrane (Bio-Rad, Hercules, Calif.) using semi-dry electrophoretic transfer. After the nonspecific binding sites on the membranes are blocked with 5% skim milk in TBS-T (20 mM Tris-HCl pH 7.5, 0.137 M NaCl, and 0.01% Tween 20) for 3 hours at room temperature with constant shaking, the membranes are incubated in TBS-T containing the relevant primary antibody (1: 500-1000) and 5% BSA overnight at 4° C. After washing with TB S-T three times, the membrane is incubated in 5% skim milk in TBS-T buffer containing the appropriate secondary anti-IgG antibody (1:5000) at room temperature for 1 h with constant shaking. The protein of interest is detected using Western Lightning®-ECL (Perkin Elmer, Waltham, Mass.) and visualized by exposure for various times (5-60 seconds). […]

As for `CC[C@@]1(O)C(=O)OCc2c1cc1n(c2=O)Cc2cc3cc4c(cc3nc2-1)OCO4` [FL118], the “cardiac output, ejection fraction and stroke volume” value in data set [1] was “no difference between vehicle control and FL118-treated SCID mice”. The PARP cleavage result in the data set with PARP cleavage was “more effective to induce PARP cleavage in p53 null HCT116 colon cancer cells than in p53 wild type HCT116 cells”.

Source of the values: US10344037B2, “Use of the FL-one hundred eighteen core chemical structure platform to generate FL-one hundred eighteen derivatives for treatment of human disease” (priority 2014, dated 2019).
